In paper PMC6576746, “Rational discovery of dual-indication multi-target PDE/Kinase inhibitor for precision anti-cancer therapy using structural systems pharmacology” (PLoS Computational Biology, 2019):

Assays:
Assay in all cases: cells
Parameters in all cases: species or system panel of human cancer cell lines; Eurofins OncoPanel proliferation; nuclei count by high-content fluorescence imaging, 10-point dose response
HUH-6 Clone 5 = conditions: HUH-6-clone5, 72 h, cell count, 3 days
Outline: (§1)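 Cells in RPMI 1640/10% FBS or special medium received compound the day after seeding, with a time-zero plate; 3-day incubation at 37°C, 5% CO2. Nuclei imaged by fluorescence microscopy; 10 half-log doses from 100 μM, 0.1% DMSO. EC50, IC50, GI50 and activity area (0–10) from curve fits.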

KU812 = conditions: Homo sapiens, KU812, 72 h, cell count, 3 days
Outline: as §1

KG-1 = conditions: Homo sapiens, KG-1, 72 h, cell count, 3 days
Outline: as §1

SU-DHL-8 = conditions: Homo sapiens, SU-DHL-8, 72 h, cell count, 3 days
Outline: as §1

A204 = conditions: Homo sapiens, A204, 72 h, cell count, 3 days
Outline: as §1

WiDr = conditions: Homo sapiens, WiDr, 72 h, cell count, 3 days
Outline: as §1

HuTu 80 = conditions: Homo sapiens, HuTu80, 72 h, cell count, 3 days
Outline: as §1

MG-63 = conditions: Homo sapiens, MG-63, 72 h, cell count, 3 days
Outline: as §1

NTERA-2 cl.D1 = conditions: Homo sapiens, NTERA-2-cl-D1, 72 h, cell count, 3 days
Outline: as §1

TE 125.T = conditions: 72 h, cell count, 3 days
Outline: as §1

SJRH30 = conditions: Homo sapiens, SJRH30, 72 h, cell count, 3 days
Outline: as §1

DLD-1 = conditions: Homo sapiens, DLD-1, 72 h, cell count, 3 days
Outline: as §1

A498 = conditions: Homo sapiens, A498, 72 h, cell count, 3 days
Outline: as §1

SW403 = conditions: Homo sapiens, SW-403, 72 h, cell count, 3 days
Outline: as §1

[1] = 50% of maximum possible response

C[C@@H]1CC(=O)NN=C1c1ccc(NN=C(C#N)C#N)cc1 [levosimendan]
IC50 (HUH-6 Clone 5; [1]): 27.1 µM
GI50 (HUH-6 Clone 5; corrected for time zero): 20 µM
EC50 (HUH-6 Clone 5; curve inflection point): 27.1 µM
IC50 (KU812; [1]): 70.3 µM
GI50 (KU812; corrected for time zero): 48.8 µM
EC50 (KU812; curve inflection point): 70.3 µM
IC50 (KG-1; [1]): 21.7 µM
GI50 (KG-1; corrected for time zero): 13.5 µM
EC50 (KG-1; curve inflection point): 19.2 µM
IC50 (SU-DHL-8; [1]): 0.604 µM
GI50 (SU-DHL-8; corrected for time zero): 0.512 µM
EC50 (SU-DHL-8; curve inflection point): 0.604 µM
IC50 (A204; [1]): 9.19 µM
GI50 (A204; corrected for time zero): 7.57 µM
EC50 (A204; curve inflection point): 7.85 µM
IC50 (WiDr; [1]): 77.6 µM
GI50 (WiDr; corrected for time zero): 70.6 µM
EC50 (WiDr; curve inflection point): 77.6 µM
IC50 (HuTu 80; [1]): 16 µM
GI50 (HuTu 80; corrected for time zero): 14.2 µM
EC50 (HuTu 80; curve inflection point): 16 µM
IC50 (MG-63; [1]): 19.5 µM
GI50 (MG-63; corrected for time zero): 14.2 µM
EC50 (MG-63; curve inflection point): 16.9 µM
IC50 (NTERA-2 cl.D1; [1]): 11.8 µM
GI50 (NTERA-2 cl.D1; corrected for time zero): 9.76 µM
EC50 (NTERA-2 cl.D1; curve inflection point): 11.6 µM
IC50 (TE 125.T; [1]): > 100 µM
GI50 (TE 125.T; corrected for time zero): 71.4 µM
EC50 (TE 125.T; curve inflection point): > 100 µM
IC50 (SJRH30; [1]): 11.4 µM
GI50 (SJRH30; corrected for time zero): 7.7 µM
EC50 (SJRH30; curve inflection point): 9.67 µM
IC50 (DLD-1; [1]): 25.1 µM
GI50 (DLD-1; corrected for time zero): 23.7 µM
EC50 (DLD-1; curve inflection point): 23.9 µM
IC50 (A498; [1]): 81.2 µM
GI50 (A498; corrected for time zero): 60.8 µM
EC50 (A498; curve inflection point): 81.2 µM
IC50 (SW403; [1]): 33.2 µM
GI50 (SW403; corrected for time zero): 14.4 µM
EC50 (SW403; curve inflection point): 28.7 µM
